This is an account of results in patent publication US10538497B2, “Compounds as indoleamine 2,3-dioxygenase inhibitors” (Merck Sharp & Dohme Corp., priority 2015, dated 2020).

In experiment [1] the target is T1, IDO1 (Homo sapiens (Human), UniProt P14902). Kind of experiment: IDO1 Enzyme Assay. To be noted: read-out: IDO1 Enzyme Assay, IC50; HIS-tagged recombinant IDO1, 40 nM.
For experiment [2], the target named is T1, IDO1. Kind of experiment: IDO1 Human Whole Blood Assay. Type of experiment: cell-based. To be noted: LPS and IFNγ 100 ng/mL, kynurenine by LC/MS/MS. As for the experimental part: IDO1 Human Whole Blood Assay
LPS and IFNγ was prepared in RPMI to a 10× of final conc. (1000 ng/mL), final concentration is 100 ng/mL.
Human whole blood was drawn in sodium heparin coated tubes from healthy internal donors. Two hundred fourty μL of blood was transferred to each of the wells of a v-bottom 96 well plate. Thirty μL of compound was transferred from intermediate dilution plate, and incubated for 15 min. […] from stimulants was then transferred to blood and mixed thoroughly. Plate was covered with breathable membrane and incubated at 37° C. for overnight (18 h).
On day 2 isotope labeled standard of kunurenine and tryptophan was made in water at 10× concentration and 30 μL was added to the blood at 3 μM final concentration. The assay plates were centrifuged at 300×G for 10 min with no brake to separate plasma from red blood cells. Sixty μL of plasma samples was removed without disturbing red blood cells. Plasma was diluted with RPMI in 1:1 ratio and proteins were precipitated out with two volume of Acetonitrile. The plates was centrifuged at 4000×G for 60 min. Twenty μL of supernatant was carefully transferred to a 384 well plate contain 40 μL of 0.1% formic acid in water and analysed by LC/MS/MS.
LC/MS/MS analyses were performed using Thermo Fisher's LX4-TSQ Quantum Ultra system. This system consists of four Agilent binary high-performance liquid chromatography (HPLC) pumps and a TSQ Quantum Ultra triple quadrupole MS/MS instrument. For each sample, 5 μL were injected onto an Atlantis T3 column column (2.1 mm×150 mm, 3 μm particle size) from Waters. The mobile phase gradient pumped at 0.8 mL/min was used to elute the analytes from the column at 25° C. The elution started at 0% B increasing linearly to 25% B at 6.5 min, holding at 25% for 1 min, re-equilibrating to 10 min. Mobile phase A consisted of 0.1% formic acid in water. Mobile phase B consisted of 0.1% of formic acid in acetonitrile. Data was acquired in positive mode using a HESI interface. The operational parameters for the TSQ Quantum Ultra instrument were a spray voltage of 4000 V, capillary temperature of 380° C., vaporizer temperature 400° C., shealth gas 60 arbitrary units, Aux gas 20 arbitrary units, tube lens 85 and collision gas 1.2 mTorr. SRM chromatograms of kynurenine (Q1: 209.2>Q3:94.0) and internal standard (Q1: 215.3>Q3:98.2) were collected for 90 sec. The peak area was integrated by Xcalibur Quan software. The ratios between the kynurenine generated in the reaction and 2D6-Kynurenine spiked-in internal standard were used to generate percentage inhibition and IC50 values. Compounds were titrated and IC50's were calculated by 4 parameter sigmoidal curve fitting formula.

Experiment [3] has as its target T1, IDO1. Kind of experiment: IDO1 Cellular Assay in Frozen HEK293 Cells Transiently Transfected with Human IDO1. The experiment is classed as cell-based. Particulars: HEK293 cells transiently transfected with human IDO1; read-out: IDO1 HEK293 Cell Assay, IC50.
Experiment [4] has as its target T1, IDO1. Kind of experiment: IDO1 Cellular Assay in Hela Cells Stimulated with IFNγ. The experiment is classed as cell-based. Particulars: Hela cells stimulated with IFNγ 100 ng/mL; read-out: IDO1 HELA Cell Assay, IC50.

T1 sequence (P14902 whole entry): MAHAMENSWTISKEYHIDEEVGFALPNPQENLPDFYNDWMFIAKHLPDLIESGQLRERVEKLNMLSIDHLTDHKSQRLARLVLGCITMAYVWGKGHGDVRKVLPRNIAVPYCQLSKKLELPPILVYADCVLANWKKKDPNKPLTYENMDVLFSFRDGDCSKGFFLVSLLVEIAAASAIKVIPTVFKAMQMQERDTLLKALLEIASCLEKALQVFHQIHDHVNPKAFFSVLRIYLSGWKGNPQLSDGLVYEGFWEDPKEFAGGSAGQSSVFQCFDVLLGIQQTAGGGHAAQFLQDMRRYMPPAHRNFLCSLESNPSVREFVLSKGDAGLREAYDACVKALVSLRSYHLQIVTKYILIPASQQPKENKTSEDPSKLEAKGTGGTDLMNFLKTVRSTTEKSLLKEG

In general, IC50 refers to the concentration at which inhibition is half-maximal. Consider `COC(=O)CNP(=O)(CSc1nonc1/C(=N/O)Nc1ccc(F)c(Br)c1)NCC(=O)OC` [Example 120, methyl 6-[({4-[N-(3-bromo-4-fluorophenyl)-N′-hydroxycarbamimidoyl]-1,2,5-oxadiazol-3-yl}sulfanyl)methyl]-3-oxo-2-oxa-5,7-diaza-6-phosphanonan-9-oate 6-oxide], for which the IC50 in experiment [1] stood at 14 nM; in experiment [2], 155 nM; in experiment [3] it was 13.4 nM; in experiment [4], 28.4 nM.
The like results for `N[C@H](CO)CSc1nonc1/C(=N/O)Nc1ccc(F)c(Br)c1` [Example 125, 4-{[(2R)-2-amino-3-hydroxypropyl]sulfanyl}-N-(3-bromo-4-fluorophenyl)-N′-hydroxy-1,2,5-oxadiazole-3-carboximidamide] were, in that order, 51.9 nM, 745 nM, 45 nM and 131 nM.
Take `N#Cc1cc(N/C(=N\O)c2nonc2SC[C@@H](O)CO)ccc1F` [Example 140, N-(3-cyano-4-fluorophenyl)-4-{[(2S)-2,3-dihydroxypropyl]sulfanyl}-N′-hydroxy-1,2,5-oxadiazole-3-carboximidamide]: the IC50 in experiment [1] came out at 96.7 nM; in experiment [2] it was 384 nM; in experiment [3], 269 nM; in experiment [4] it was 245 nM.
Turning to `O=C(CSc1nonc1/C(=N/O)Nc1ccc(F)c(Br)c1)NC(CO)CO` [Example 145, 2-({4-[N-(3-bromo-4-fluorophenyl)-N′-hydroxycarbamimidoyl]-1,2,5-oxadiazol-3-yl}sulfanyl)-N-[2-hydroxy-1-(hydroxymethyl)ethyl]acetamide], the half-maximal inhibitory concentration (IC50) in experiment [1] is 50.9 nM; in experiment [2], 1270 nM; in experiment [3], 77.1 nM; in experiment [4], 68 nM.
Regarding `CN1C(=O)NC[C@H]1CSc1nonc1/C(=N/O)Nc1ccc(F)c(C#N)c1` [Example 146], the IC50 stood at 155 nM in experiment [1], 1400 nM in experiment [2], 222 nM in experiment [3] and 398 nM in experiment [4].
As to `N#Cc1cc(N/C(=N\O)c2nonc2SC[C@H](O)CO)ccc1F` [Example 147, N-(3-cyano-4-fluorophenyl)-4-{[(2R)-2,3-dihydroxypropyl]sulfanyl}-N′-hydroxy-1,2,5-oxadiazole-3-carboximidamide], the IC50 in experiment [1] came to 154 nM; in experiment [2], 1210 nM; in experiment [3], 373 nM; in experiment [4], 494 nM.
`N#Cc1cc(N/C(=N\O)c2nonc2SC[C@H]2CCC(=O)N2)ccc1F` [Example 148, N-(3-cyano-4-fluorophenyl)-N′-hydroxy-4-({[(2R)-5-oxopyrrolidin-2-yl]methyl}sulfanyl)-1,2,5-oxadiazole-3-carboximidamide]: the IC50 in experiment [1] was determined as 172 nM; in experiment [2], 1760 nM; in experiment [3] it was 209 nM; in experiment [4], 303 nM.
As for `N#Cc1cc(N/C(=N\O)c2nonc2SC[C@@H]2CCC(=O)N2)ccc1F` [Example 149, N-(3-cyano-4-fluorophenyl)-N′-hydroxy-4-({[(2S)-5-oxopyrrolidin-2-yl]methyl}sulfanyl)-1,2,5-oxadiazole-3-carboximidamide], the IC50 is 110 nM in experiment [1], 1050 nM in experiment [2], 120 nM in experiment [3] and 285 nM in experiment [4].
For `OC[C@@H](O)CSc1nonc1/C(=N/O)Nc1ccc(F)c(C(F)F)c1` [Example 168, N-[3-(difluoromethyl)-4-fluorophenyl]-4-{[(2R)-2,3-dihydroxypropyl]sulfanyl}-N′-hydroxy-1,2,5-oxadiazole-3-carboximidamide], the IC50 was 69.1 nM in experiment [1], 475 nM in experiment [2], 55.1 nM in experiment [3] and 111 nM in experiment [4].
The corresponding values for `OC[C@@H](O)CSc1nonc1/C(=N/O)Nc1ccc(F)c(Cl)c1` [Example 169, N-(3-chloro-4-fluorophenyl)-4-{[(2R)-2,3-dihydroxypropyl]sulfanyl}-N′-hydroxy-1,2,5-oxadiazole-3-carboximidamide] are 52.8 nM, 1290 nM, 93.7 nM and 191 nM.
The like results for `CS(=O)(=O)NCCSc1nonc1/C(=N/O)Nc1ccc(F)c(C#N)c1` [Example 171, N-(3-cyano-4-fluorophenyl)-N′-hydroxy-4-({2-[(methylsulfonyl)amino]ethyl}sulfanyl)-1,2,5-oxadiazole-3-carboximidamide] were, in that order, 110 nM, 660 nM, 30.8 nM and 120 nM.
With `CC(=O)N[C@H](CO)CSc1nonc1/C(=N/O)Nc1ccc(F)c(Br)c1` [Example 173, N-[(1R)-2-({4-[N-(3-bromo-4-fluorophenyl)-N′-hydroxycarbamimidoyl]-1,2,5-oxadiazol-3-yl}sulfanyl)-1-(hydroxymethyl)ethyl]acetamide], the half-maximal inhibitory concentration (IC50) in experiment [1] worked out at 93.7 nM; in experiment [2] it was 827 nM; in experiment [3], 155 nM; in experiment [4], 246 nM.
Turning to `O=C(CSc1nonc1/C(=N/O)Nc1ccc(F)c(Br)c1)NC[C@H](O)CO` [Example 175, 2-({4-[N-(3-bromo-4-fluorophenyl)-N′-hydroxycarbamimidoyl]-1,2,5-oxadiaxol-3-yl}sulfanyl)-N-[(2S)-2,3-dihydroxypropyl]acetamide], the IC50 in experiment [1] is 125 nM; in experiment [2] it was 1720 nM; in experiment [3] it was 281 nM; in experiment [4] it was 223 nM.
Regarding `N#Cc1cc(N/C(=N\O)c2nonc2SCCNS(=O)(=O)C2CC2)ccc1F` [Example 178, N-(3-cyano-4-fluorophenyl)-4-({2-[(cyclopropylsulfonyl)amino]ethyl}sulfanyl)-N′-hydroxy-1,2,5-oxadiazole-3-carboximidamide], the IC50 in experiment [1] came out at 60.8 nM; in experiment [2] it was 1080 nM; in experiment [3] it was 35.5 nM; in experiment [4], 57.2 nM.
For the compound `N#Cc1cc(N/C(=N\O)c2nonc2SCCNS(N)(=O)=O)ccc1F` [Example 181, N-(3-cyano-4-fluorophenyl)-N′-hydroxy-4-{[2-(sulfamoylamino)ethyl]sulfanyl}-1,2,5-oxadiazole-3-carboximidamide], the IC50 in experiment [1] was 119 nM; in experiment [2] it was 3240 nM; in experiment [3], 136 nM; in experiment [4], 261 nM.
The corresponding values for `N#Cc1cc(N/C(=N\O)c2nonc2SCCNC(=O)CO)ccc1F` [Example 182, N-[2-({4-[N-(3-cyano-4-fluorophenyl)-N′-hydroxycarbamimidoyl]-1,2,5-oxadiazol-3-yl}sulfanyl)ethyl]-2-hydroxyacetamide] are 135 nM, 526 nM, 186 nM and 321 nM.
For the compound `CNC(=O)CSc1nonc1/C(=N/O)Nc1ccc(F)c(C#N)c1` [Example 185, 2-({4-[N-(3-cyano-4-fluorophenyl)-N′-hydroxycarbamimidoyl]-1,2,5-oxadiazol-3-yl}sulfanyl)-N-methylacetamide], the concentration for half-maximal inhibition (IC50) amounted to 88 nM in experiment [1], 395 nM in experiment [2], 65.4 nM in experiment [3] and 166 nM in experiment [4].
Turning to `O/N=C(\Nc1ccc(F)c(Br)c1)c1nonc1SCc1nnc[nH]1` [Example 191, N-(3-bromo-4-fluorophenyl)-N′-hydroxy-4-[(4H-1,2,4-triazol-3-ylmethyl)sulfanyl]-1,2,5-oxadiazole-3-carboximidamide], the IC50 in experiment [1] turned out to be 43.7 nM; in experiment [2] it was 903 nM; in experiment [3], 10 nM; in experiment [4], 22.6 nM.
